Measured values as given in US8916535B2, “Use of 2′,5′-oligoadenylate derivative compounds” (Protea Biopharma N.V., priority 2010, dated 2014).

Tests used:
wild-type XMRV = experiment: XMRV replication in chronically infected CD4+ cells derived from XMRV-positive individuals (ELISA of supernatants); type: cell-based; conditions: purified CD4+ T lymphocytes from XMRV-positive adults; in vitro; compared to untreated cells
Procedure: Secondly, the activity of 2-5A^N1B is tested on chronically infected cells derived from XMRV-positive individuals. XMRV-positive adults are recruited from the clinic. The antiviral response to 2-5A^N1B in vitro is assessed by ELISA in the supernatants of cultured CD4+ cells.

XMRV = experiment: XMRV-replication in acutely infected CD4+ T lymphocytes from healthy individuals (ELISA of culture supernatants); type: cell-based; conditions: freshly isolated CD4+ T cells treated with 10, 100 and 1000 nM then infected with XMRV; 96 h post-infection; compared to untreated controls
Procedure: First, the activity of 2-5A^N1B on XMRV-replication is tested in CD4^+ T lymphocytes purified from healthy individuals. To determine the effective dose of 2-5A^N1B during acute XMRV infection, freshly isolated CD4^+ T cells are treated with three concentrations of 2-5A^N1B (10, 100 and 1000 nM) and then infected with XMRV. XMRV-replication is assessed in culture supernatants by ELISA.

N^1-benzyl-3′-deoxyadenylyl-(2′-5′)-3′-deoxyadenylyl-(2′-5′)-3′-deoxyadenylyl-(2′-2″)—N^9-[(2″-hydroxy-ethoxy)-methyl]-adenine [2-5A^N1B]
replication of wild-type XMRV (wild-type XMRV): significantly inhibits | XMRV-replication (XMRV): significant decrease
